Structures are written as SMILES. pKd: −log10 of the molar value. Entries after “also recorded” stand apart in the source; their conditions may differ.

Data set [1] deals with hTERT protein. The experiment in a line: Western blot of hTERT protein in MCF7 cells. Format: cell-based, human. Here is the method:
Western blot analysis. GTC365- or DMSO-treated MCF7 cells were lysed by RIPA buffer and the supernatant of lysate was obtained by centrifugation at 14,000 rpm for 15 min. The concentration of the whole cellular protein was determined by Bradford assay. The same amount of proteins (120 μg) was separated on 8% SDS-PAGE and transferred to PVDF membrane in 20% MeOH/1× Tris-glycine. The membrane was incubated in a blocking buffer containing 5% BSA/5% non-fat milk with TBS-T (0.1% Tween 20) for 90 min at room temperature prior to overnight incubation with hTERT antibody against rabbit (1:200, Santa Cruz #H231, pAb) in 5% BSA/TBS-T buffer at 4° C. […]
Immunoblot analysis. […] The concentration of the whole cellular protein was determined byBradford assay. […]
BCL2 is a downstream molecule to hTERT such that BCL2 expression is activated by hTERT to repress apoptosis. To further define the effect of GTC365 on the transcription of hTERT, the relative mRNA levels of MYC and BCL2 were determined by quantitative PCR analysis in MCF7 cells after treatment with GTC365 for 72 h. […] A series of GTC260 analogs were synthesized and their effect on hTERT gene expression in MCF7A and U87 cells determined (FIG. 7). […]

Data set [2] concerns normal human melanocytes (NHM-002). Briefly: Viability of normal human melanocytes. The class given is cell-based. Conditions: 1.25, 2.5 and 5 μM, 72 h. The method, then:
FIGS. 13A-13C are a set of graphs showingselective reduction in viability (A) and hTERT expression (B) in melanoma cells carrying hTERT core promotor mutations. NHM-002 (normal human melanocytes) and a G124A mutant cell line were treated with vehicle, 1.25, 2.5, and 5 μM GTC365 for 72 h. Viability was reduced in hTERT mutant melanoma cells by 50% (left). […] (C) Differential response to GTC365 in WT and promoter mutant cell lines.
Next, to assess the selectivity of GTC365 for hTERT-dependent cancer cells relative to normal precursorcells, we compared the effects of a range of […] on viability at 72 h in normal humanmelanocytes (NHM-002) relative to those of UACC-903, aG124A mutant (FIG. 13A). […] To confirm that the reduction in cell viability was aresult of hTERT downregulation, we performed reverse transcription and qPCR to measure the mRNA level of hTERT expression in cells treated with DMSO or 5 μMGTC365. hTERT expression was reduced by 41% in themelanoma cell line after 72 h but was undetectable in normalmelanocytes, even in the absence of GTC365 (FIG. 13B). Finally, tobroadly assess the selectivity of GTC365 for hTERT promotermutant versus WT cells, we conducted a 6-point 72 h MTSproliferation assay to determine EC50s in 14 additional melanoma cell lines with characterized TERT promoter status([…]) (FIG. 13C). […]

Data set [3] addresses G146A 5-12 G-quadruplex of hTERT core promoter. Briefly: FRET assay for Kd, G146A probe. Format: binding, human. The method, then:
(§1) FRET assay for compound screening and determination of Kd value. FRET probes of WT, G124/125A, and G146A of the 5-12 G-quadruplex were synthesized and labeled with FAM (Ex. 490 nm/Em. 520 nm) and TAMRA (Ex. 560 nm/Em. 580 nm) at each end by MGW Operon Inc. The WT probe (50 nM) was annealed in a buffer containing 10 mM Tris-HCl (pH 7.5) and 5 mM KCl by heating at 95° C. for 5 min and slowly cooling to room temperature. Compounds (50 μM) and probe were incubated for 1 h at room temperature. The same volume of DMSO served as a control. For Kd value determination, the WT, G124/125A, and G146A probes were annealed, and then several concentrations of compound were treated for 1 h at room temperature. Dose-dependent fluorescence intensity at 520 nm was measured by a microplate reader (BioTek Synergy HT). The data were corrected with the blank signal of buffer and compound. The relative fluorescence intensity compared to DMSO was used for binding curve fitting to determine Kd value using GraphPad Prism software.
(§2) The hTERT core promoter region includes 12 runs of consecutive guanines that form two G-quadruplexes in tandem on the G-rich strand. […] When the G-quadruplex is folded, two fluorophores are in proximity, which leads to a decrease in FAM fluorescence. […]

The target in data set [4] is G124/125A 5-12 G-quadruplex of hTERT core promoter. Briefly: FRET assay for Kd, G124/125A probe. The class given is binding, human. Here is the method:
as §1, §2

In the case of `N=C(N)NCCCS(=O)(=O)Nc1ccc(Nc2c3ccccc3nc3cc([N+](=O)[O-])ccc23)cc1` [GTC365], the hTERT protein level entry in data set [1] is on record as “downregulated”. The viability change result in data set [2] is recorded as “minimal viability change; also recorded: minimal reduction”. In addition, the “Kd value higher than WT and G124/125A” value in data set [3] is given as 1.5 fold. In addition, the pKd in data set [4] is about 6.40.

(Values after patent publication US10556860B2, “hTERT modulators and methods of use” (Arizona Board of Regents on Behalf of the University of …, priority 2015, dated 2020).)
